Experimental data published in publication PMC10788915, “Fragment Merging, Growing, and Linking Identify New Trypanothione Reductase Inhibitors for Leishmaniasis” (Journal of Medicinal Chemistry, 2024).

What was measured:
[1] = target: T1, hGR (human glutathione reductase) (Homo sapiens, UniProt P00390); assay: hGR enzymatic inhibition assay (NADPH oxidation at 340 nm); assay type: biochemical; conditions: for IC50: 50 nM hGR, 100 μM NADPH, 25 °C; for SI (ratio of GR IC50/TR IC50): hGR versus LiTR
T1 construct: purchased Sigma-Aldrich
T1 sequence (P00390 44-522): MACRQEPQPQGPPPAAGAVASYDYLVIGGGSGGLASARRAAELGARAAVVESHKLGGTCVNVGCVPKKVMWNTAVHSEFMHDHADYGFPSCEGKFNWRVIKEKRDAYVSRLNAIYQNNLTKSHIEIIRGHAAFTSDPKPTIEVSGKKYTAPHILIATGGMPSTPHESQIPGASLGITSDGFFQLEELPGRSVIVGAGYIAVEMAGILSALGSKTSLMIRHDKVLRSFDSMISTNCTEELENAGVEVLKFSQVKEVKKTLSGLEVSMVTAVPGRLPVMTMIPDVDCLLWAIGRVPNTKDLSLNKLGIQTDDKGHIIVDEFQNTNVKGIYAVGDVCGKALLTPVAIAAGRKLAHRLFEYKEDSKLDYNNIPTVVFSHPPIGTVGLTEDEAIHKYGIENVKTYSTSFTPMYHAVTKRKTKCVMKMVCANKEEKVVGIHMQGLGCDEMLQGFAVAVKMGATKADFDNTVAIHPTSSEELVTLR
Experimental: (§1) Enzymatic inhibition assays were performed in 50 mM HEPES pH 7.4, 40 mM NaCl at 25 °C using a JASCO V650 spectrophotometer equipped with a JASCO EHC 716 Peltier element to ensure controlled temperature. The first experiment was carried out using 50 nM LiTR, 10 or 100 μM compound to be tested, 150 μM trypanothione (trypanothione disulfide purchased from Bachem), and 100 μM NADPH (tetrasodium salt, purchased from Calbiochem). The best inhibitor candidates were then tested at concentrations ranging from 1 nM to 250 μM to determine the IC50. Assays were initiated upon addition of 100 μM NADPH to 50 nM LiTR or hGR (human glutathione reductase purchased from Sigma-Aldrich) in the presence of different concentration of compounds and 150 μM trypanothione. For both experiments, the oxidation of NADPH was followed as a decrease in absorbance at 340 nm. For each concentration of compound, the initial velocity of the NADPH oxidation was used to determine the percentage of LiTR activity with respect to that in the absence of any compound. The IC50 was determined upon fitting the residual activity of TR as a dose–response logistic equation defined as ymin + (ymax – ymin)/(1 + (x/IC50)^slope). […] The Ki was determined graphically upon linear fitting of data points for each trypanothione concentration. Data analysis was performed with QtiPlot 0.9.8.9 svn 2288, and graphs were made with Matplotlib.
Figure S3. Inhibition assay of LiTR (red) and hGR (grey) with compounds 5-6, 9-10 and 14.
Enzymatic assays were carried out at 25°C on a JASCO V650 spectrophotometer equipped with a JASCO EHC716 Peltier unit. Compound concentrations used during the experiments range from 1 […]
higher than 30 µM and 20 µM, respectively. Briefly, 50 nM LiTR or hGR (Sigma Aldrich) were mixed in 50 mM HEPES pH 7.4, 40 mM NaCl with each compound and 150 µM trypanothione or glutathione. After 3-minute incubation at 25°C, the measurement was initiated upon addition of 100 µM NADPH. The oxidation of NADPH was followed as a decrease in absorbance at 340 nm. Each initial velocity of LiTR enzymatic reaction with the compounds was expressed as a percentage of residual activity with respect to that in the absence of compound. Each data point is the mean of two measurements. The IC50 was determined upon fitting the data as a dose response logistic equation defined by the Kaleidagraph software as ymin+(ymax-ymin)/(1+(x/IC50)^slope).
(§2) (1 picture or pasted object on this page, not shown here)

[2] = target: T2, Leishmania infantum TR (LiTR) (Leishmania infantum, UniProt A4HSF7); assay: LiTR inhibition kinetics, Ki from Dixon plots; assay type: biochemical; conditions: for mode of inhibition of LiTR: Dixon plots; for Ki: graphically determined from Dixon plots
T2 construct: The TbTR and LiTR genes were subcloned in a pET28b vector; 6-His (cleaved yes); made in house; host or cells: E. coli BL21(DE3), pET28b
T2 sequence (A4HSF7 1-491): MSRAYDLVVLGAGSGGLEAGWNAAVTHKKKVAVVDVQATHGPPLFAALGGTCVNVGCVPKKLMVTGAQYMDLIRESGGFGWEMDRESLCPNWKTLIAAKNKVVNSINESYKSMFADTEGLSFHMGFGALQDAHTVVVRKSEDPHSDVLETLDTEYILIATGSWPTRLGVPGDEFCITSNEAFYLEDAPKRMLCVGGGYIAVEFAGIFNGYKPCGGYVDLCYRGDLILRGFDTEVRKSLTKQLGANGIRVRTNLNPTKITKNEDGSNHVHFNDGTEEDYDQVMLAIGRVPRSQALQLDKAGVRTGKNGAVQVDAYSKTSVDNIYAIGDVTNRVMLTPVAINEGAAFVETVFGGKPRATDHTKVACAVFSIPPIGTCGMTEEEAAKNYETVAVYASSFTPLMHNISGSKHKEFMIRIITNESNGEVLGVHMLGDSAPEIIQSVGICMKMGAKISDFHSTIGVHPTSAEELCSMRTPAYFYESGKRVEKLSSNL
Experimental: as §1, with “Matplotlib. […]” for “Matplotlib.”
assays were carried out at 25°C on a JASCO V650 spectrophotometer equipped with a JASCO EHC716 Peltier unit. Compound concentrations range from 1 to 6 µM. Briefly, 50 nM LiTR were mixed in 50 mM HEPES pH 7.4, 40 mM NaCl with each compound and various concentrations of trypanothione (reported on the figure). After 3-minute incubation at 25°C, the measurement was initiated upon addition of 100 µM NADPH. The oxidation of NADPH was followed as a decrease in absorbance at 340 nm. The inverse of the initial velocity of LiTR enzymatic reaction was reported as a function of the compound concentration. The intersection of the linear fitting of data at different trypanothione concentration provides a graphical determination of the inhibition constant K i. Each data point is the mean of three measurements.
as §2

Row | Structure (SMILES) | IC50 [1] [nM] | SI (ratio of GR IC50/TR IC50) [1] | mode of inhibition of LiTR [2] | Ki [2] [nM]
1 | C[N+]1(CCCc2ccccc2)CCN(C(=O)N(Cc2ccc(C(=O)NCCc3ccc(F)cc3)o2)c2ccc(F)cc2)CC1.[I-] [Compound 9, 4-(((5-((4-Fluorophenethyl)carbamoyl)furan-2-yl)methyl)(4-fluorophenyl)carbamoyl)-1-methyl-1-(3-phenylpropyl)piperazin-1-ium Iodide] | 62400 ± 12400 | 3.0 | linear competitive inhibition | 5500 ± 200
2 | O=C(NCCc1ccc(F)cc1)c1ccc(CNC(=O)N2CC[N+](CCCc3ccccc3)(Cc3ccc(Cl)c(Cl)c3)CC2)o1.[I-] [Compound 14, 1-(3,4-Dichlorobenzyl)-4-(((5-((4-fluorophenethyl)carbamoyl)furan-2-yl)methyl)carbamoyl)-1-(3-phenylpropyl)piperazin-1-ium Iodide] | 3700 ± 300 | 1.6 | linear competitive inhibition | 800 ± 200
3 | O=C(NCCc1ccc(F)cc1)c1ccc(CN(C(=O)N2CC[N+](CCCc3ccccc3)(Cc3ccc(Cl)c(Cl)c3)CC2)c2ccc(F)cc2)o1.[I-] [Compound 10, 1-(3,4-Dichlorobenzyl)-4-(((5-((4-fluorophenethyl)carbamoyl)furan-2-yl)methyl)(4-fluorophenyl)carbamoyl)-1-(3-phenylpropyl)piperazin-1-ium Iodide] | 2300 ± 100 | 1.7 | linear competitive inhibition | 200
